Data from ChEMBL document CHEMBL6127041, “Dual-target inhibitors based on acetylcholinesterase: Novel agents for Alzheimer's disease” (Eur J Med Chem, 2024).

Key:
[1] = target: Cholinesterase (Homo sapiens, UniProt P06276); experiment: Inhibition of BChE (unknown origin)
[2] = target: T1, Acetylcholinesterase (Homo sapiens, UniProt P22303); experiment: Inhibition of AChE (unknown origin)
[3] = target: High affinity cGMP-specific 3',5'-cyclic phosphodiesterase 9A (Homo sapiens, UniProt O76083); experiment: Inhibition of PDE9A (unknown origin)
Chain of High affinity cGMP-specific 3',5'-cyclic phosphodiesterase 9A (O76083 whole entry): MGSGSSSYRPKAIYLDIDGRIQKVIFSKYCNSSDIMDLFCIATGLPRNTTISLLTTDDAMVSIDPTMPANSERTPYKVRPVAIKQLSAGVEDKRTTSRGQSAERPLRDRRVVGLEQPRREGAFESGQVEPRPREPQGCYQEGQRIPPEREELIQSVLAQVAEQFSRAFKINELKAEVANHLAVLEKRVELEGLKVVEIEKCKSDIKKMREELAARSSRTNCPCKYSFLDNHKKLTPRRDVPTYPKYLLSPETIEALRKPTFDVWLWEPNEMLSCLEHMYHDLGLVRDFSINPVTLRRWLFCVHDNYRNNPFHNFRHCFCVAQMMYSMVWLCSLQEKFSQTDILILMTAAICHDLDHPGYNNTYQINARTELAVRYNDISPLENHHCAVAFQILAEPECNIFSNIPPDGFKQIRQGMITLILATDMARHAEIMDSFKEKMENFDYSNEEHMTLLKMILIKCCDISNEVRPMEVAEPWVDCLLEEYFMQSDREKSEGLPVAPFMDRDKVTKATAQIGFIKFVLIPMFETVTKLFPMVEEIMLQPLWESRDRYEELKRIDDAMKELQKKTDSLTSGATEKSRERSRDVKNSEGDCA

[4] = target: Beta-secretase 1 (Homo sapiens, UniProt P56817); experiment: Inhibition of human BACE-1 by FRET assay
Chain of Beta-secretase 1 (P56817 whole entry): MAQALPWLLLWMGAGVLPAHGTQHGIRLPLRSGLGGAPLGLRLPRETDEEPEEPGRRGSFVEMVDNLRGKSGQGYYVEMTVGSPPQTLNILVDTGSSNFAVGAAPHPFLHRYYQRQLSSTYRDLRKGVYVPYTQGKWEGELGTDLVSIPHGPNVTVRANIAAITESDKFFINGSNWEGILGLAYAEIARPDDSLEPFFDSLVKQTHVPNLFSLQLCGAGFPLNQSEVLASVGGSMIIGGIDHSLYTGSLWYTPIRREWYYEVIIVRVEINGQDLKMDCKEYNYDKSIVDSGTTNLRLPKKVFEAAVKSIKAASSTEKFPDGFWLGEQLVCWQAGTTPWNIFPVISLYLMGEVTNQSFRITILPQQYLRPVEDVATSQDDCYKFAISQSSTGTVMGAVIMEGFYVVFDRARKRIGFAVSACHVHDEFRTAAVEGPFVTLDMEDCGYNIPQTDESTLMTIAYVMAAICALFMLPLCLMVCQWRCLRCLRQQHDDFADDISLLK

[5] = target: T1, Acetylcholinesterase
[6] = test system: SH-SY5Y; experiment: Cytotoxicity against human SH-SY5Y cells assessed as reduction in cell viability at 10 uM measured after 24 hrs by MTT assay relative to control; assay type: functional
[7] = target: cGMP-specific 3',5'-cyclic phosphodiesterase (Homo sapiens, UniProt O76074); experiment: Inhibition of PDE5A (unknown origin) using […] as substrate measured after 1 hr by fluorescence polarization assay
[8] = target: T1, Acetylcholinesterase; experiment: Inhibition of AChE (unknown origin) by Ellman's method
[9] = target: Acetylcholinesterase (Electrophorus electricus, UniProt O42275); experiment: Inhibition of electric eel AChE
Chain of Acetylcholinesterase (Electrophorus electricus, UniProt O42275) (O42275 whole entry): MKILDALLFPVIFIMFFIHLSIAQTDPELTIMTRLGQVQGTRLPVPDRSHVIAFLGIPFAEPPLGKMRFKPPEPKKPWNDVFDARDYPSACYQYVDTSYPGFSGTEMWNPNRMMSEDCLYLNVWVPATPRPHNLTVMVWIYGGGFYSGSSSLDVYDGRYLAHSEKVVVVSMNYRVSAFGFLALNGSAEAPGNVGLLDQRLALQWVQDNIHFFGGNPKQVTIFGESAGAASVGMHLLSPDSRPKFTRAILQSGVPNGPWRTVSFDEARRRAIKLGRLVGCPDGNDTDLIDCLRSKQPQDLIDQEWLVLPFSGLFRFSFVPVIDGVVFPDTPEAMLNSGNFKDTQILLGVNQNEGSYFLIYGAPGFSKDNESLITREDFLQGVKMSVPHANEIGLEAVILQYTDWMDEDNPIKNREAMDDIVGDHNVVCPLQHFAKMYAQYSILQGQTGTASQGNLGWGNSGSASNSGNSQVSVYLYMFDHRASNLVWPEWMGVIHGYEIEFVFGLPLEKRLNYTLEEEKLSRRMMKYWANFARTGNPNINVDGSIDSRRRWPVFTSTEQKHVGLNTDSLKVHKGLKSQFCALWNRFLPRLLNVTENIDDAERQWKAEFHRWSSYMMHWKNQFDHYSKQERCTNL

T1 sequence (P22303 whole entry): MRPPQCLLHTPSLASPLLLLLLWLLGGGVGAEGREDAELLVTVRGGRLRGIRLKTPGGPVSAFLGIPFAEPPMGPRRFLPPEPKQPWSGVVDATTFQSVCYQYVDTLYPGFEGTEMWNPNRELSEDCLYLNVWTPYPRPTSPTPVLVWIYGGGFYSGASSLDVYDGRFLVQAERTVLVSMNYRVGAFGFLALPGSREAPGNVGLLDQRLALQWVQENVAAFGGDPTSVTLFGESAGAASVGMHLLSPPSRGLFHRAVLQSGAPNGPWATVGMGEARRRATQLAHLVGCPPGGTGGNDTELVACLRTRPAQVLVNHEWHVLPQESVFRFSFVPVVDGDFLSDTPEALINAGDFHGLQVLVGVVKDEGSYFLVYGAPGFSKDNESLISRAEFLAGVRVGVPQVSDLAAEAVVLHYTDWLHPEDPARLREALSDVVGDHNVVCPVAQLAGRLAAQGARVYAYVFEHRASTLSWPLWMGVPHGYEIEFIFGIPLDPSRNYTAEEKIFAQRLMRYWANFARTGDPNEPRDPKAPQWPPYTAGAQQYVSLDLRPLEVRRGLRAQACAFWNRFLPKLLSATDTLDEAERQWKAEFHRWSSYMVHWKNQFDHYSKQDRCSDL
Chain of Cholinesterase (P06276 whole entry): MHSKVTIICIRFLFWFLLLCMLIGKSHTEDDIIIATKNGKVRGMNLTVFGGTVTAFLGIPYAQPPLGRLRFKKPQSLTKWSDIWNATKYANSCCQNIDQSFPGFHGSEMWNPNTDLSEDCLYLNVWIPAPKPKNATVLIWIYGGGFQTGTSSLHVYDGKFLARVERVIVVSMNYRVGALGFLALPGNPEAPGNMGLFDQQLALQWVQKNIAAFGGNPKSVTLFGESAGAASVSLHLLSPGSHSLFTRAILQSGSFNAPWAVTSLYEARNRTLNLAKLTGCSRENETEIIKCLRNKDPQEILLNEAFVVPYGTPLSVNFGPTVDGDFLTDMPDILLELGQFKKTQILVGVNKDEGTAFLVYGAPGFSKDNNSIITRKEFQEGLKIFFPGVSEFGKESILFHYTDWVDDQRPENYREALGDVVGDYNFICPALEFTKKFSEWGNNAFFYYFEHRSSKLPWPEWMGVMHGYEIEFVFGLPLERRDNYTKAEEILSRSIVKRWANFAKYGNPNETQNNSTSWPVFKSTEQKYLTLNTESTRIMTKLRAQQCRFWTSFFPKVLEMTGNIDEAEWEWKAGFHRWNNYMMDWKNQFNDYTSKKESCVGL

**Q.** How did the IC50 [1] turn out when `O=c1[nH]c(CNCCC2CCN(Cc3ccccc3)CC2)nc2c1cnn2C1CCCC1` was run?
**A.** 5800 nM

**Q.** And the IC50 [2]?
**A.** 290 nM

**Q.** What about the IC50 [3] of the same compound?
**A.** 380 nM

**Q.** For `c1ccc2oc(CNCCCCCCCNc3c4c(cc5ccccc35)CCCC4)cc2c1`, which IC50 [4] is on record?
**A.** 1350 nM

**Q.** And the IC50 [5]?
**A.** 0.86 nM

**Q.** And the Activity [6]?
**A.** 63%

**Q.** What does the source list for `O=C1[C@H]2Cc3c([nH]c4ccccc34)[C@@H](c3ccc4c(c3)OCO4)N2C(=O)CN1CCC1CCN(Cc2ccccc2)CC1`?
**A.** IC50 [7]: 150 nM; IC50 [8]: 30 nM

**Q.** With `O=C1c2c(O)cc(OCCCCCN3CCCCC3)cc2OC2C=CC=CC12` (centres undefined) as the compound, how does the IC50 [9] read?
**A.** 469 nM
